Key:
[1] = tested on: calming or quieting behaviour; experiment: Tranquilizing effect, topical administration in hairless mice; format: in vivo; settings: 5% solution topical
Description: Hairless mice, ten in each group, were used in this study. N-phenethyl phenyl-alpha-acetoxyacetamide, N-ethyl phenyl-alpha-acetoxyacetamide or other phenyl-alpha-acyloxyacetamide derivative of the instant invention was prepared as a 5% solution in acetone: water, 8:2 or ethanol:water, 8:2. A test solution was topically applied to the left dorsal skin of hairless mice. The same topical applications were repeated three times at 30 minute intervals. A vehicle alone solution containing acetone and water or ethanol and water was used as a control. For the next 8 hours and also 24 hours later all mice were carefully observed and examined for any signs or evidence of calming or quieting effects caused by the test compound.
Normally when a mouse is picked up by the tail with thumb and forefinger the mouse struggles trying to free itself; and if the mouse is placed on a horizontal metallic grid uniformly spaced at 8 mm, the mouse nervously pulls itself across the grid, again trying to free itself from the restraining grip of the fingers.
If during the above observation period the mouse behaved the same before and after the topical treatment when picked up by the tail and placed on the metallic grid, the test compound was determined to have no significant tranquilizing effect by topical administration.

[2] = tested on: itch provoked by papain or histamine dihydrochloride; experiment: Anti-pruritic effect on normal human skin (papain or histamine induced itch); format: in vivo; settings: 2 to 5% topical, normal human adult volunteers
Description: Itch provoking pruritic compositions were prepared as follows: papain 0.5% solution was prepared by dissolving papain 50 mg in 10 ml of saline, and histamine 0.2% solution was prepared by dissolving histamine dihydrochloride 20 mg in 10 ml of saline. Itching was provoked or induced as follows: a pruritic composition in a volume of 0.05 ml containing papain or histamine dihydrochloride as a pruritic agent was topically applied on the flexor forearm of normal human adult volunteers and the skin site was gently pricked rapidly through the solution with a 26-gauge needle to the level of the papillary dermis as described by Bernstein et al. (J. E. Bernstein, R. M. Swift, K. Soltani and A. L. Lorincz: Antipruritic Effect of an Opiate Antagonist, Naloxone Hydrochloride in Journal of Investigative Dermatology 78, 82-83, 1982). This technique provoked or induced itch sensation at the test skin site within a few minutes following the topical application of the pruritic composition. After itch sensation had been induced a composition containing 2 to 5% N-ethyl phenyl-alpha-acetoxyacetamide, N-phenethyl phenyl-alpha-acetoxyacetamide or other phenyl-alpha-acyloxyacetamide derivatives of the instant invention was topically applied on the pruritic skin site. The vehicle alone cream containing no active ingredient was used as a control.

[3] = tested on: calming or quieting behaviour; experiment: Tranquilizing effect, subcutaneous administration in mice; format: in vivo, hairless mice, white hairy mice; settings: 1 to 2% solution
Description: (§1) Hairless mice, white hairy mice and dogs were used in these studies.
N-phenethyl phenyl-alpha-acetoxyacetamide, N-ethyl phenyl-alpha-acetoxyacetamide or other phenyl-alpha-acyloxyacetamide derivative of the instant invention was prepared as a 1 to 2% solution or as gelatin capsules containing 75 to 300 mg per capsule of the active ingredient. Hairless mice or white hairy mice five in each group were injected subcutaneously with the test solution in a volume of 0.1 ml. The same procedure was repeated once more 3 hours later. For the next 8 hours and also at 24 hours later, all the mice were carefully observed and examined for any signs and evidences of calming or quieting effects caused by the test compound.
Parameters and criteria used for sedative or tranquilizing effect were the same as that described in the foregoing section.

[4] = tested on: scratching or licking induced by pruritic agent; experiment: Screening for anti-pruritic effect, topical application, hairless mouse challenged with pruritic agent; format: in vivo; settings: 5% solution topical, 30 minutes observation
Excerpt: Either the mouse or the rat may be used as a screening model for anti-pruritic compounds. Before testing hair is plucked from the test site of skin in haired animals. Therefore hairless strains of mouse or the strain of rat known as fuzzy rat is preferred as a screening model for the present purpose.
A test composition containing 5% phenyl-alpha-acyloxyacetamide derivative in solution was topically applied to the left dorsal skin of a hairless mouse and a control vehicle solution was topically applied to the right dorsal skin of the same mouse. The same topical applications were repeated three times at 30 minute intervals. A challenging composition containing a pruritic agent, i.e. itch provoking substance, was then topically applied in a volume of 0.05 ml on both left and right dorsal skin of the same mouse. For the next 30 minutes the mouse was carefully observed for signs and symptoms of scratching or licking at the skin sites where the challenging pruritic composition had been topically applied.
If the mouse scratched or licked indiscriminately at both left and right sides, the test composition was determined to have no anti-pruritic property. […] To confirm the anti-pruritic effect of the test composition, the test solution was later topically applied to the right instead of the left dorsal skin of the same mouse. […]

[5] = tested on: calming or sedative effects; experiment: Tranquilizing effect, oral administration in dogs; format: in vivo; settings: test compounds 5 to 10 mg per kg
Description: as §1
Three dogs weighing between 10 to 20 kg were given orally N-phenethyl phenyl-alpha-acetoxyacetamide or N-ethyl phenyl-alpha-acetoxyacetamide in gelating capsules at doses of 5 to 10 mg per kg.

[6] = tested on: Eczemas, and Other Pruritic Disorders; experiment: Topical anti-pruritic effect in patients with pruritic disorders; format: in vivo, human; settings: first category compounds, 2 to 5%
Description: Patients with various kinds of pruritic disorders participated in this study. The cases included atopic eczema, patchy eczema, chronic eczema of the hands, lichen simplex chronicus, contact allergic eczema, pruritus of the aged, pruritus of hepatic origin, pruritus ani, pruritus vulvae, scalp pruritus and pruritus of other disorders such as mycosis fungoides, psoriasis and pityriasis rubra pilaris.
Therapeutic compositions containing phenyl-alpha-acyloxyacetamides at 2 to 5% concentrations in cream, ointment, lotion or solution were prepared according to the Examples. The medicinal compositions were topically applied by the patient in an amount sufficient to cover the itching area of skin. Applications were made one to two times daily or as frequently as necessary and without occlusive dressings.
Two parameters have been used to compare degrees of anti-pruritic effect of phenyl-alpha-acyloxyacetamides. The first parameter is whether the relief of itching is complete (2+) or incomplete (1+). The second parameter is the number of hours the patient stays free of pruritus after the initial anti-pruritic effect. […] Therefore, the overall anti-pruritic effect of a compound may range from 2+ to 4+. […] 4+ for complete relief and lasting for more than 8 hours.

pruritus ani = experiment: Topical treatment of pruritus ani; format: in vivo, human; settings: 1 to 5 percent, regular basis
Excerpt: (§2) It has already been established through tests in animals and humans that phenyl alpha-acyloxyacetamide derivatives are therapeutically effective for topical or systemic treatment of various dermatologic and other conditions.

summer eczema-prurigo = experiment: Oral anti-scratch (anti-pruritic) treatment of dogs; format: in vivo; settings: for adverse effects on repeated dosing: dog, in vivo, po; for duration of anti-scratch or anti-pruritic effect / drowsiness or intoxication / time to stop scratching / anti-pruritic or anti-scratching effect on repeated dosing: dogs; for duration of anti-scratch or anti-pruritic effect / drowsiness or intoxication / time to stop scratching: oral single dose 5 to 10 mg/kg; for drowsiness or intoxication / time to stop scratching: all three dogs; for anti-pruritic or anti-scratching effect on repeated dosing: oral, repeated at intervals of two to several days
Description: Three dogs with summer eczema-prurigo were treated with oral administration of phenyl-alpha-acyloxyacetamide derivatives. Gelatin capsules containing N-ethyl phenyl-alpha-acetoxyacetamide or N-phenethyl phenyl-alpha-acetoxyacetamide at dosages ranging from 50 mg to 150 mg per capsule were prepared according to Examples. Single doses of 5 mg/kg to 10 mg/kg were administered orally to the dogs.
Oral doses containing N-ethyl phenyl-alpha-acetoxyacetamide or N-phenethyl phenyl-alpha-acetoxyacetamide were administered repeatedly to the dogs at intervals of two to several days.

common scratching = experiment: Systemic treatment of domestic dogs for common scratching; format: in vivo; settings: oral single dose 5 to 10 mg per kg
Excerpt: as §2

| Compound | tranquilizing effect [1] | Anti-pruritic Effect [2] | tranquilizing effect [3] | Anti-pruritic Effect [4] | tranquilizing / sedative effect [5] | Anti-pruritic Effect [6] | relief from itching and scratching (pruritus ani) | adverse effects on repeated dosing (summer eczema-prurigo) | duration of anti-scratch or anti-pruritic effect (summer eczema-prurigo) | drowsiness or intoxication (summer eczema-prurigo) | time to stop scratching (summer eczema-prurigo) | anti-pruritic or anti-scratching effect on repeated dosing (summer eczema-prurigo) | relief of scratching, duration (common scratching) |
| --- | --- | --- | --- | --- | --- | --- | --- | --- | --- | --- | --- | --- | --- |
| CCNC(=O)C(OC(C)=O)c1ccccc1 (stereo not drawn) [N-ethyl phenyl-alpha-acetoxyacetamide] | no detectable signs of sedation | substantial anti-pruritic effect | no detectable signs of sedation | substantial anti-pruritic effect | no detectable signs of sedation | 4+ (complete relief and lasting for more than 8 hours) | complete relief from itching and scratching | No evidence of adverse effects was detected | approximately 8 hours | mentally alert as usual and did not have any signs or symptoms of drowsiness or intoxication | one | the same anti-pruritic or anti-scratching effect | more than 8 hours |
| CC(=O)OC(C(=O)NCCc1ccccc1)c1ccccc1 (stereo not drawn) [N-phenethyl phenyl-alpha-acetoxyacetamide] | marked degrees of tranquilizing effect | substantial anti-pruritic effect | marked degrees of calming effect | substantial anti-pruritic effect | mild tranquilizing effect | 4+ (complete relief and lasting for more than 8 hours) | complete relief from itching and scratching | No evidence of adverse effects was detected | approximately 8 hours | mentally alert as usual and did not have any signs or symptoms of drowsiness or intoxication | one | the same anti-pruritic or anti-scratching effect | more than 8 hours |

— patent US4518789A, “Phenyl alpha-acyloxyacetamide derivatives and their therapeutic use” (priority 1983, dated 1985)
